Assay results reported in ChEMBL document CHEMBL1201862, “PubChem BioAssay data set” (2004).
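The compound was tested at five concentrations on cells cultured in 96-well plates, with a 48-hour exposure period. The concentration for 50% growth inhibition is given as GI50.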 The source made the active and inactive calls. No stated cut-off is given here; in the data, active = GI50 up to about 1.1 µM and inactive = higher.

Columns and labels:
Test in all cases: NCI tumour cell line growth inhibition, 48 h
Malme-3M = tested on: Malme-3M
SK-MEL-2 = tested on: SK-MEL-2
DLD-1 = tested on: DLD-1
RPMI-8226 = tested on: RPMI-8226
SW-620 = tested on: SW-620
SK-MEL-5 = tested on: SK-MEL-5
M14 = tested on: M14
CAKI-1 = tested on: CAKI-1
UACC-257 = tested on: UACC-257
NCI-H522 = tested on: NCI-H522
NCI-H226 = tested on: NCI-H226
SF-295 = tested on: SF-295
OVCAR-8 = tested on: OVCAR-8
HOP-62 = tested on: HOP-62
HOP-18 = tested on: HOP-18
A549 = tested on: A549
ACHN = tested on: ACHN
OVCAR-4 = tested on: OVCAR-4
LOX IMVI = tested on: LOX IMVI
SNB-19 = tested on: SNB-19
COLO 205 = tested on: COLO 205
TK-10 = tested on: TK-10
MOLT-4 = tested on: MOLT-4
HT-29 = tested on: HT-29
HCT-116 = tested on: HCT-116
RXF 393 = tested on: RXF 393
M19-MEL = tested on: M19-MEL
OVCAR-3 = tested on: OVCAR-3
SK-MEL-28 = tested on: SK-MEL-28
SF-268 = tested on: SF-268
CCRF-CEM = tested on: CCRF-CEM
U-251 = tested on: U-251
UO-31 = tested on: UO-31
SF-539 = tested on: SF-539
SNB-78 = tested on: SNB-78
NCI-H23 = tested on: NCI-H23
A498 = tested on: A498
OVCAR-5 = tested on: OVCAR-5
HL-60 = tested on: HL-60
SNB-75 = tested on: SNB-75
XF498 = tested on: XF498
EKVX = tested on: EKVX
RXF 631 = tested on: RXF 631
SR = tested on: SR
K562 = tested on: K562
HCC 2998 = tested on: HCC 2998
DMS-273 = tested on: DMS-273
UACC-62 = tested on: UACC-62
HOP-92 = tested on: HOP-92
DMS-114 = tested on: DMS-114
NCI-H460 = tested on: NCI-H460
KM-20L2 = tested on: KM-20L2
KM12 = tested on: KM12
HCT-15 = tested on: HCT-15
LXFL 529 = tested on: LXFL 529
IGROV-1 = tested on: IGROV-1
786-0 = tested on: 786-0
SN12C = tested on: SN12C
SK-OV-3 = tested on: SK-OV-3

Compound: N#CCCN(C1=NN(C(=O)CC(=O)Nc2ccc(Cl)cc2)C(c2ccccc2)C1)c1ccc(Cl)cc1 (stereo unspecified)
- GI50 (Malme-3M): > 100 µM (inactive)
- GI50 (SK-MEL-2): > 100 µM (inactive)
- GI50 (DLD-1): > 100 µM (inactive)
- GI50 (RPMI-8226): > 100 µM (inactive)
- GI50 (SW-620): > 100 µM (inactive)
- GI50 (SK-MEL-5): > 100 µM (inactive)
- GI50 (M14): > 100 µM (inactive)
- GI50 (CAKI-1): > 100 µM (inactive)
- GI50 (UACC-257): > 100 µM (inactive)
- GI50 (NCI-H522): > 100 µM (inactive)
- GI50 (NCI-H226): > 100 µM (inactive)
- GI50 (SF-295): > 100 µM (inactive)
- GI50 (OVCAR-8): > 100 µM (inactive)
- GI50 (HOP-62): > 100 µM (inactive)
- GI50 (HOP-18): > 100 µM (inactive)
- GI50 (A549): > 100 µM (inactive)
- GI50 (ACHN): > 100 µM (inactive)
- GI50 (OVCAR-4): > 100 µM (inactive)
- GI50 (LOX IMVI): > 100 µM (inactive)
- GI50 (SNB-19): > 100 µM (inactive)
- GI50 (COLO 205): > 100 µM (inactive)
- GI50 (TK-10): > 100 µM (inactive)
- GI50 (MOLT-4): > 100 µM (inactive)
- GI50 (HT-29): > 100 µM (inactive)
- GI50 (HCT-116): > 100 µM (inactive)
- GI50 (RXF 393): > 100 µM (inactive)
- GI50 (M19-MEL): > 100 µM (inactive)
- GI50 (OVCAR-3): > 100 µM (inactive)
- GI50 (SK-MEL-28): > 100 µM (inactive)
- GI50 (SF-268): > 100 µM (inactive)
- GI50 (CCRF-CEM): > 100 µM (inactive)
- GI50 (U-251): > 100 µM (inactive)
- GI50 (UO-31): > 100 µM (inactive)
- GI50 (SF-539): > 100 µM (inactive)
- GI50 (SNB-78): 40.4 µM (inactive)
- GI50 (NCI-H23): > 100 µM (inactive)
- GI50 (A498): > 100 µM (inactive)
- GI50 (OVCAR-5): > 100 µM (inactive)
- GI50 (HL-60): > 100 µM (inactive)
- GI50 (SNB-75): > 100 µM (inactive)
- GI50 (XF498): > 100 µM (inactive)
- GI50 (EKVX): > 100 µM (inactive)
- GI50 (RXF 631): > 100 µM (inactive)
- GI50 (SR): > 100 µM (inactive)
- GI50 (K562): > 100 µM (inactive)
- GI50 (HCC 2998): > 100 µM (inactive)
- GI50 (DMS-273): > 100 µM (inactive)
- GI50 (UACC-62): > 100 µM (inactive)
- GI50 (HOP-92): > 100 µM (inactive)
- GI50 (DMS-114): > 100 µM (inactive)
- GI50 (NCI-H460): > 100 µM (inactive)
- GI50 (KM-20L2): > 100 µM (inactive)
- GI50 (KM12): > 100 µM (inactive)
- GI50 (HCT-15): > 100 µM
- GI50 (LXFL 529): > 100 µM (inactive)
- GI50 (IGROV-1): > 100 µM (inactive)
- GI50 (786-0): > 100 µM (inactive)
- GI50 (SN12C): > 100 µM (inactive)

Compound: Cn1c2c(c3ccccc31)C1CCCCCCC1C1C(=O)OC(=O)C21 (stereo unspecified)
- GI50 (Malme-3M): 11.9 µM (inactive)
- GI50 (DLD-1): 33.6 µM (inactive)
- GI50 (RPMI-8226): 23.1 µM (inactive)
- GI50 (SW-620): 32.4 µM (inactive)
- GI50 (SK-MEL-5): 35.2 µM (inactive)
- GI50 (M14): 88.1 µM (inactive)
- GI50 (NCI-H226): 63 µM (inactive)
- GI50 (SF-295): 35.2 µM (inactive)
- GI50 (OVCAR-8): 31.9 µM (inactive)
- GI50 (HOP-18): > 100 µM (inactive)
- GI50 (A549): 36.9 µM (inactive)
- GI50 (ACHN): 56 µM (inactive)
- GI50 (OVCAR-4): 53.8 µM (inactive)
- GI50 (LOX IMVI): 22.8 µM (inactive)
- GI50 (SNB-19): 44.8 µM (inactive)
- GI50 (COLO 205): 40.6 µM (inactive)
- GI50 (TK-10): > 100 µM (inactive)
- GI50 (MOLT-4): 24.8 µM (inactive)
- GI50 (HT-29): 30.1 µM (inactive)
- GI50 (RXF 393): 21.2 µM (inactive)
- GI50 (M19-MEL): 37.4 µM (inactive)
- GI50 (SK-OV-3): 32.7 µM (inactive)
- GI50 (OVCAR-3): 19.5 µM (inactive)
- GI50 (SK-MEL-28): 54.1 µM (inactive)
- GI50 (SF-268): 45.2 µM (inactive)
- GI50 (CCRF-CEM): 24.3 µM (inactive)
- GI50 (U-251): 37.9 µM (inactive)
- GI50 (UO-31): > 100 µM (inactive)
- GI50 (SF-539): 39.8 µM (inactive)
- GI50 (SNB-78): > 100 µM (inactive)
- GI50 (NCI-H23): 69.7 µM (inactive)
- GI50 (A498): 72.1 µM (inactive)
- GI50 (OVCAR-5): > 100 µM (inactive)
- GI50 (HL-60): 30.8 µM (inactive)
- GI50 (SNB-75): 30.3 µM (inactive)
- GI50 (XF498): 43.6 µM (inactive)
- GI50 (EKVX): 45.5 µM (inactive)
- GI50 (RXF 631): 33.3 µM (inactive)
- GI50 (SR): 29 µM (inactive)
- GI50 (K562): 31.3 µM (inactive)
- GI50 (HCC 2998): 22.4 µM (inactive)
- GI50 (DMS-273): 20 µM (inactive)
- GI50 (UACC-62): 59.6 µM (inactive)
- GI50 (DMS-114): 29.1 µM (inactive)
- GI50 (NCI-H460): 36.8 µM (inactive)
- GI50 (KM12): 38.9 µM (inactive)
- GI50 (HCT-15): 30.2 µM
- GI50 (LXFL 529): 39.7 µM (inactive)
- GI50 (IGROV-1): 27.4 µM (inactive)
- GI50 (786-0): > 100 µM (inactive)
- GI50 (SN12C): 39.5 µM (inactive)

Compound: C/C(=N/NS(=O)(=O)c1ccc(C)cc1)c1cccc[n+]1[O-]
- GI50 (DLD-1): > 100 µM (inactive)
- GI50 (RPMI-8226): > 100 µM (inactive)
- GI50 (SW-620): > 100 µM (inactive)
- GI50 (SK-MEL-5): > 100 µM (inactive)
- GI50 (M14): > 100 µM (inactive)
- GI50 (CAKI-1): > 100 µM (inactive)
- GI50 (UACC-257): > 100 µM (inactive)
- GI50 (NCI-H522): > 100 µM (inactive)
- GI50 (SF-295): > 100 µM (inactive)
- GI50 (OVCAR-8): > 100 µM (inactive)
- GI50 (HOP-62): > 100 µM (inactive)
- GI50 (HOP-18): > 100 µM (inactive)
- GI50 (A549): > 100 µM (inactive)
- GI50 (ACHN): > 100 µM (inactive)
- GI50 (OVCAR-4): > 100 µM (inactive)
- GI50 (SNB-19): > 100 µM (inactive)
- GI50 (TK-10): > 100 µM (inactive)
- GI50 (MOLT-4): > 100 µM (inactive)
- GI50 (HT-29): > 100 µM (inactive)
- GI50 (HCT-116): > 100 µM (inactive)
- GI50 (M19-MEL): > 100 µM (inactive)
- GI50 (SK-OV-3): > 100 µM (inactive)
- GI50 (OVCAR-3): > 100 µM (inactive)
- GI50 (SK-MEL-28): > 100 µM (inactive)
- GI50 (SF-268): > 100 µM (inactive)
- GI50 (CCRF-CEM): > 100 µM (inactive)
- GI50 (U-251): > 100 µM (inactive)
- GI50 (UO-31): > 100 µM (inactive)
- GI50 (SF-539): > 100 µM (inactive)
- GI50 (SNB-78): > 100 µM (inactive)
- GI50 (NCI-H23): > 100 µM (inactive)
- GI50 (A498): > 100 µM (inactive)
- GI50 (OVCAR-5): > 100 µM (inactive)
- GI50 (HL-60): > 100 µM (inactive)
- GI50 (SNB-75): > 100 µM (inactive)
- GI50 (XF498): > 100 µM (inactive)
- GI50 (EKVX): > 100 µM (inactive)
- GI50 (RXF 631): > 100 µM (inactive)
- GI50 (SR): > 100 µM (inactive)
- GI50 (HCC 2998): > 100 µM (inactive)
- GI50 (DMS-273): > 100 µM (inactive)
- GI50 (UACC-62): > 100 µM (inactive)
- GI50 (HOP-92): > 100 µM (inactive)
- GI50 (DMS-114): > 100 µM (inactive)
- GI50 (NCI-H460): > 100 µM (inactive)
- GI50 (KM-20L2): > 100 µM (inactive)
- GI50 (KM12): > 100 µM (inactive)
- GI50 (HCT-15): > 100 µM
- GI50 (LXFL 529): > 100 µM (inactive)
- GI50 (IGROV-1): > 100 µM (inactive)
- GI50 (786-0): > 100 µM (inactive)
- GI50 (SN12C): > 100 µM (inactive)
